{"source": "paper PMC7693184", "about": "(Angewandte Chemie (International Ed. in English), 2020)", "target": "T1, BtuR (ATP:Co(I)rrinoid adenosyltransferase) (Brucella melitensis, UniProt Q8YHV0)", "T1 construct": "gene BMEI0696", "T1 sequence (Q8YHV0 1-189)": "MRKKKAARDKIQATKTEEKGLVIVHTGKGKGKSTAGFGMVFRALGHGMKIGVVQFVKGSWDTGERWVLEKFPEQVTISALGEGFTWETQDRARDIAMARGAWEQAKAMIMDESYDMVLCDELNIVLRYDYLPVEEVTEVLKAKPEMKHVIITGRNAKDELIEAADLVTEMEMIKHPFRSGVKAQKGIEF", "conditions": "excess cob(I)alamin as corrinoid substrate; inhibitor 5 μM; not a substrate itself", "data": [{"substance": "nibalamin [Nibl]", "values": [{"measurement": "% inhibition at 5 μM", "value": 60, "unit": "%"}]}]}
